Experimental data published in PubChem BioAssay AID699 (NMMLSC, 2007).
Active and inactive are the calls of the source. How the calls were made is not given here.

The molecules below were run against fMet-Leu-Phe receptor (Homo sapiens) (UniProt P21462) (assay: inhibition of ligand-evoked FPR calcium flux – cell-based, calcium response, confirmation (AID 699)). Settings: FPR1 cells, ligand-induced calcium response inhibition; active compounds read high; concentration not given here.
Chain of fMet-Leu-Phe receptor (Homo sapiens) (P21462 whole entry, looked up): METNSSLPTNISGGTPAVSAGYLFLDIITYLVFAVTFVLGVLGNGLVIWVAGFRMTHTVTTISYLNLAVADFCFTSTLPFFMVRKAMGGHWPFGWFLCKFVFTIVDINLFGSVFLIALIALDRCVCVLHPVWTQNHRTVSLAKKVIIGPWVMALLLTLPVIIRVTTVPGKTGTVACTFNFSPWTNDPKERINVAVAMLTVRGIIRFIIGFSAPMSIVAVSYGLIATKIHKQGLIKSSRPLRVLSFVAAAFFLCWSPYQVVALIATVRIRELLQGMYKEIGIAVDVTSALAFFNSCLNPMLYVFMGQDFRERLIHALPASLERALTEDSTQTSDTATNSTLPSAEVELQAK

| inhibition | SMILES |
| --- | --- |
| 100% | COc1ccc(Cl)cc1-n1c(=S)sc2c(=O)[nH]c(SCC(=O)NCC3CCCO3)nc21 (centres undefined) |
| 79.1% (inactive) | CC1(C)S[C@@H]2[C@H](NC(=O)Cc3ccccc3)C(=O)N2[C@H]1C(=O)O |
| -0% (inactive) | CC(C)CN(CC(C)C)C(=O)CS(=O)(=O)Cc1ccccc1 |
| 98.4% | CCCOc1ccc(C2C(C(=O)c3ccco3)=C(O)C(=O)N2CCCn2ccnc2)cc1 (centres undefined) |
| 39.8% (inactive) | COCCCN1C(=O)C(O)=C(C(=O)c2ccco2)C1c1ccc(Br)cc1 (centres undefined) |
| 15.5% (inactive) | Cc1ccc(C2/C(=C(/O)c3ccc(Cl)cc3)C(=O)C(=O)N2CC2CCCO2)o1 (centres undefined) |
| 93.9% | COC(=O)c1[nH]c(C)c(/C(O)=C2\C(=O)C(=O)N(CCN3CCOCC3)C2c2cccs2)c1C (centres undefined) |
| -0% (inactive) | O=C1C(CCS(=O)c2ccccc2)C(=O)N(c2ccccc2)N1c1ccccc1 (centres undefined) |
| 56.7% (inactive) | COCCCN1C(=O)C(O)=C(C(=O)c2ccco2)C1c1ccccc1 (centres undefined) |
| 56.9% (inactive) | O=C(C1=C(O)C(=O)N(Cc2ccccc2)C1c1ccco1)c1ccco1 (centres undefined) |
| -0% (inactive) | O=C1C(C23CC4CC(CC(C4)C2)C3)C(=O)N(c2ccccc2)N1c1ccccc1 |
| 104% | Cc1[nH]n2c(=O)c(C#N)c(-c3ccccc3)nc2c1-c1ccccc1 |
| 99% | COc1ccccc1C1/C(=C(/O)c2ccccc2)C(=O)C(=O)N1CC(C)C (centres undefined) |
| -0% (inactive) | Cc1ccsc1C1C2=C(CC(C)(C)CC2=O)Nc2ncnn21 (centres undefined) |
| 93.8% | COc1ccc(OC)c(C2C(C(=O)c3cccs3)=C(O)C(=O)N2c2cc(C)on2)c1 (centres undefined) |
| 96.9% | CCCCC1C(=O)N(c2ccccc2)N(c2ccccc2)C1=O |
| 97% | O=C(NC1CCCC1)c1sc(=S)n2c1[nH]c(=O)c1ccccc12 |

| inhibition | SMILES |
| --- | --- |
| -0% (inactive) | C=CCOc1ccc(C2C(C(=O)c3ccco3)=C(O)C(=O)N2Cc2cccnc2)cc1 (centres undefined) |
| 91.7% | CCC(=O)Nc1c(C#N)c2nc3ccccc3nc2n1-c1ccccc1C |
| 95.1% | COCCN1C(=O)C(O)=C(C(=O)c2cccs2)C1c1ccccc1 (centres undefined) |
| 26.5% (inactive) | COC(=O)c1[nH]c(C)c(/C(O)=C2\C(=O)C(=O)N(CCCN3CCOCC3)C2c2ccccn2)c1C (centres undefined) |
| 93.7% | COc1ccccc1Oc1c(C)oc2cc(OC(=O)c3ccco3)ccc2c1=O |
| 21.4% (inactive) | CCCOc1ccc(C2C(C(=O)c3ccc(C)o3)=C(O)C(=O)N2CCCn2ccnc2)cc1 (centres undefined) |
| 90.9% | COCCCN1C(=O)C(O)=C(C(=O)c2ccco2)C1c1cccc(Br)c1 (centres undefined) |
| -0% (inactive) | Cc1[nH]n2c(=O)c3c(nc2c1-c1ccc(Cl)cc1)CCC3 |
| 102% | C=CCOc1cccc(C2C(C(=O)c3ccco3)=C(O)C(=O)N2CCN2CCOCC2)c1 (centres undefined) |
| 90.5% | CCOc1cccc(/C(O)=C2/C(=O)C(=O)N(CCOC)C2c2ccc(C)o2)c1 (centres undefined) |
| 101% | COCCCN1C(=O)C(=O)/C(=C(/O)c2ccccc2)C1c1ccc2c(c1)OCO2 (centres undefined) |
| 83.2% (inactive) | COc1ccccc1-c1c(C)oc2cc(OC(=O)c3ccco3)ccc2c1=O |
| 38.1% (inactive) | COc1ccc(OC)c(C2/C(=C(/O)c3ccccc3)C(=O)C(=O)N2Cc2ccco2)c1 (centres undefined) |
| -0% (inactive) | O=C(C1=C(O)C(=O)N(Cc2ccccc2)C1c1ccncc1)c1ccco1 (centres undefined) |
| 66.4% (inactive) | Cc1c(C(=O)NC2CCCc3ccccc32)oc2ccc(S(=O)(=O)N3CCOCC3)cc12 (centres undefined) |
| 98.8% | COc1cc(C2C(C(=O)c3ccco3)=C(O)C(=O)N2CCc2ccccc2)ccc1O (centres undefined) |
| 23.6% (inactive) | CCOc1ccc(C2C(C(=O)c3ccco3)=C(O)C(=O)N2CCCn2ccnc2)cc1 (centres undefined) |
